The values below come from patent publication US20260159512A1, “BCAT2 INHIBITORS” (AGIOS PHARMACEUTICALS, INC., priority 2021, published 2026).

Common to all, as to settings: average where tested multiple times
Test [1] deals with T1, BCAT2 (Homo sapiens, UniProt O15382).
T1 sequence (O15382 28-392): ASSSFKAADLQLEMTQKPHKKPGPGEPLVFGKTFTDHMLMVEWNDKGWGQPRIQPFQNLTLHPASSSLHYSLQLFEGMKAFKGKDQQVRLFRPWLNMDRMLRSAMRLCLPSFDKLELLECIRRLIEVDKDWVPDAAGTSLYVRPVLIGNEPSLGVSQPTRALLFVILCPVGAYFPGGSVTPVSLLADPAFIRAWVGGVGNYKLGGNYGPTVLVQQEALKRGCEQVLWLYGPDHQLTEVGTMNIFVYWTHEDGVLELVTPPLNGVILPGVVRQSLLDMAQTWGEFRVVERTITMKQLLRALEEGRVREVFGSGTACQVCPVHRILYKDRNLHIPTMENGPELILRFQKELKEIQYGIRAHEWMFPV
Kind of test: BCAT2 in vitro enzyme inhibition assay (resazurin/diaphorase-coupled fluorescence). It counts as biochemical. The procedure, abridged:
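Coupled fluorescence readout: glutamate formed from L-leucine/α-ketoglutarate transamination drives GDH/NAD/diaphorase reduction of resazurin (Ex 540/Em 590). Human BCAT2 was first exposed 1 h at room temperature to compound, top final 100 μM in 3-fold, 10-point series; substrate reaction ran 1 h before SDS quench, in technical duplicate with DMSO max and enzyme-free min controls.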
(Alamar Blue is a resazurin reagent that responds to reducing activity.)

The target of the next test is T2, hBCAT1 (Homo sapiens, UniProt P54687).
T2 sequence (P54687 1-386): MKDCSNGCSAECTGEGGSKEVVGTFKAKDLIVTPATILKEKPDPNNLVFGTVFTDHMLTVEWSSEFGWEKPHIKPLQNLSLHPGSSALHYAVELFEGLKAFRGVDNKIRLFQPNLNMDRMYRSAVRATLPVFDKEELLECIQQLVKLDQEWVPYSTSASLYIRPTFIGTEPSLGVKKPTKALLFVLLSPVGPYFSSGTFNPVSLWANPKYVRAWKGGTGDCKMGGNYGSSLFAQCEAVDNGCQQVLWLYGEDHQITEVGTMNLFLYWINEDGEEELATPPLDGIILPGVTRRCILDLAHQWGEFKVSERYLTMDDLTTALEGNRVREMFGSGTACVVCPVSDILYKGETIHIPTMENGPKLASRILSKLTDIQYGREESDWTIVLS
In words: BCAT1 in vitro enzyme inhibition assay (resazurin/diaphorase-coupled fluorescence). It counts as biochemical. The procedure, abridged:
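Human BCAT1 activity read by resazurin/diaphorase-coupled fluorescence. Compounds added from 50× DMSO stocks at 1:50, giving 10-point 3-fold titrations from 100 μM top final concentration. Run in technical duplicate; repeat tests averaged.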

The target of test [2] is T1, BCAT2. In words: BCAT2 in vitro cell inhibition using engineered A549 cells (KMV cell assay, 13C6-KMV by LC-MS/MS). Type of test: cell-based. On the set-up: The result was an engineered A549 cell line that expressed endogenous BCAT2; endogenous in cells; host or cells: A549 cells with MUT and BCAT1 knocked out by CRISPR/CAS9.

What is called IC50 is the concentration that inhibits the measured activity by half. Regarding `O=C(N[C@H]1CCC[C@@H](n2c(-c3ccccc3F)nc3cnc(-c4ncn(C(F)F)n4)cc32)C1)c1ncc(Cl)s1` [Example 378, 5-chloro-N-((1S,3R)-3-(6-(1-(difluoromethyl)-1H-1,2,4-triazol-3-yl)-2-(2-fluorophenyl)-1H-imidazo[4,5-c]pyridin-1-yl)cyclohexyl)thiazole-2-carboxamide], the figures for the IC50 against BCAT2 [1], at hBCAT1 and against BCAT2 [2] were no more than 100 nM, less than 500 nM and no more than 100 nM, respectively.
As for `CC1(Cc2nc3cnc(-c4nc[nH]n4)cc3n2[C@@H]2CCC[C@H](NC(=O)c3ncc(Cl)s3)C2)CC1` [Example 379, 5-chloro-N-((1S,3R)-3-(2-((1-methylcyclopropyl)methyl)-6-(1H-1,2,4-triazol-3-yl)-1H-imidazo[4,5-c]pyridin-1-yl)cyclohexyl)thiazole-2-carboxamide], the IC50 on BCAT2 [1] is no more than 100 nM; on hBCAT1 it was less than 500 nM; on BCAT2 [2], no more than 100 nM.
For `CC(C)Cc1nc2cnc(-c3nnco3)cc2n1[C@@H]1CCC[C@H](NC(=O)c2ncc(Cl)s2)C1` [Example 380, 5-chloro-N-((1S,3R)-3-(2-isobutyl-6-(1,3,4-oxadiazol-2-yl)-1H-imidazo[4,5-c]pyridin-1-yl)cyclohexyl)thiazole-2-carboxamide], the IC50 is 100 to 500 nM against BCAT2 [1], greater than 5000 nM against hBCAT1 and greater than 1000 nM against BCAT2 [2].
As to `CC(C)(C)Cc1nc2cnc(-c3ccccn3)cc2n1[C@@H]1CCC[C@H](NC(=O)c2ncc(Cl)s2)C1` [Example 381, 5-chloro-N-((1S,3R)-3-(2-neopentyl-6-(pyridin-2-yl)-1H-imidazo[4,5-c]pyridin-1-yl)cyclohexyl)thiazole-2-carboxamide], the results for the IC50 at BCAT2 [1], on hBCAT1 and at BCAT2 [2] were no more than 100 nM, 1000 to 5000 nM and 100 to 500 nM, respectively.
Consider `CC(C)Cc1nc2cnc(-c3ncccn3)cc2n1C1CCCC(NC(=O)c2ncc(Cl)s2)C1O` (stereo not drawn) [Example 383, 5-chloro-N-(2-hydroxy-3-(2-isobutyl-6-(pyrimidin-2-yl)-1H-imidazo[4,5-c]pyridin-1-yl)cyclohexyl)thiazole-2-carboxamide], for which the IC50 was no more than 100 nM at BCAT2 [1], less than 500 nM against hBCAT1 and 100 to 500 nM against BCAT2 [2].
The like results for `CC(C)Cc1nc2cnc(-c3nccs3)cc2n1C1CCCC(NC(=O)c2ncc(Cl)s2)C1O` (stereo not drawn) [Example 386, 5-chloro-N-(2-hydroxy-3-(2-isobutyl-6-(thiazol-2-yl)-1H-imidazo[4,5-c]pyridin-1-yl)cyclohexyl)thiazole-2-carboxamide] were, in that order, no more than 100 nM, less than 500 nM and no more than 100 nM.
The like results for `CC(C)(C)Cc1nc2cnc(-n3nccn3)cc2n1[C@@H]1CCC[C@H](NC(=O)c2ccc(Cl)s2)[C@H]1O` [Example 387, 5-chloro-N-((1S,2R,3R)-2-hydroxy-3-(2-neopentyl-6-(2H-1,2,3-triazol-2-yl)-1H-imidazo[4,5-c]pyridin-1-yl)cyclohexyl)thiophene-2-carboxamide] were, in that order, no more than 100 nM, less than 500 nM and no more than 100 nM.
The like results for `CC(C)(C)Cc1nc2cnc(-c3ccccn3)cc2n1[C@@H]1CCC[C@H](NC(=O)c2ncc(Cl)s2)[C@H]1O` [Example 389, 5-chloro-N-((1S,2R,3R)-2-hydroxy-3-(2-neopentyl-6-(pyridin-2-yl)-1H-imidazo[4,5-c]pyridin-1-yl)cyclohexyl)thiazole-2-carboxamide] were, in that order, no more than 100 nM, less than 500 nM and no more than 100 nM.
For the compound `CC(C)Cc1nc2cnc(-c3cccc(C#N)n3)cc2n1[C@@H]1CCC[C@H](NC(=O)c2ncc(Cl)s2)[C@H]1O` [Example 392, 5-chloro-N-((1S,2R,3R)-3-(6-(6-cyanopyridin-2-yl)-2-isobutyl-1H-imidazo[4,5-c]pyridin-1-yl)-2-hydroxycyclohexyl)thiazole-2-carboxamide], the half-inhibitory concentration (IC50) was 100 to 500 nM on BCAT2 [1], 1000 to 5000 nM against hBCAT1 and greater than 1000 nM against BCAT2 [2].
As to `CC(C)Cc1nc2cnc(-n3nccn3)cc2n1[C@@H]1CCC[C@H](NC(=O)c2ccc(Cl)s2)[C@H]1O` [Example 393, 5-chloro-N-((1S,2R,3R)-2-hydroxy-3-(2-isobutyl-6-(2H-1,2,3-triazol-2-yl)-1H-imidazo[4,5-c]pyridin-1-yl)cyclohexyl)thiophene-2-carboxamide], the IC50 against BCAT2 [1] was no more than 100 nM; against hBCAT1, less than 500 nM; on BCAT2 [2], no more than 100 nM.
As to `O=C(N[C@H]1CCC[C@@H](n2c(-c3ccccc3F)nc3cnc(-c4nc[nH]n4)cc32)[C@@H]1O)c1ccc(Cl)s1` [Example 399, 5-chloro-N-((1S,2R,3R)-3-(2-(2-fluorophenyl)-6-(1H-1,2,4-triazol-3-yl)-1H-imidazo[4,5-c]pyridin-1-yl)-2-hydroxycyclohexyl)thiophene-2-carboxamide], the IC50 against BCAT2 [1] was no more than 100 nM; against hBCAT1, less than 500 nM; against BCAT2 [2] it was no more than 100 nM.
For `O=C(N[C@H]1CCC[C@@H](n2c(-c3ccccc3F)nc3cnc(-c4nc[nH]n4)cc32)[C@@H]1O)c1ncc(Cl)s1` [Example 400, 5-chloro-N-((1S,2R,3R)-3-(2-(2-fluorophenyl)-6-(1H-1,2,4-triazol-3-yl)-1H-imidazo[4,5-c]pyridin-1-yl)-2-hydroxycyclohexyl)thiazole-2-carboxamide], the IC50 against BCAT2 [1] is no more than 100 nM; against hBCAT1, less than 500 nM; against BCAT2 [2] it was no more than 100 nM.
In the case of `CC(C)Cc1nc2cnc(-c3nc[nH]n3)cc2n1[C@@H]1CCC[C@H](NC(=O)c2ccc(Cl)s2)[C@H]1O` [Example 401, 5-chloro-N-((1S,2R,3R)-2-hydroxy-3-(2-isobutyl-6-(1H-1,2,4-triazol-3-yl)-1H-imidazo[4,5-c]pyridin-1-yl)cyclohexyl)thiophene-2-carboxamide], the IC50 at BCAT2 [1] was no more than 100 nM; against hBCAT1, less than 500 nM; against BCAT2 [2], no more than 100 nM.
Turning to `O=C(NC1CCCCC(n2c(-c3ccccc3F)nc3cnc(-c4nc[nH]n4)cc32)C1O)c1ncc(Cl)s1` (stereo not drawn) [Example 402, 5-chloro-N-((2-(2-fluorophenyl)-6-(1H-1,2,4-triazol-3-yl)-1H-imidazo[4,5-c]pyridin-1-yl)-2-hydroxycycloheptyl)thiazole-2-carboxamide], the 50% inhibitory concentration (IC50) is no more than 100 nM at BCAT2 [1], less than 500 nM against hBCAT1 and no more than 100 nM on BCAT2 [2].
For `O=C(NC1CCCCC(n2c(-c3c(O)cccc3F)nc3cnc(-c4nc[nH]n4)cc32)C1O)c1ccc(Cl)s1` (stereo not drawn) [Example 403, 5-chloro-N-(3-(2-(2-fluoro-6-hydroxyphenyl)-6-(1H-1,2,4-triazol-3-yl)-1H-imidazo[4,5-c]pyridin-1-yl)-2-hydroxycycloheptyl)thiophene-2-carboxamide], the IC50 is no more than 100 nM against BCAT2 [1], less than 500 nM against hBCAT1 and 100 to 500 nM at BCAT2 [2].
For `O=C(N[C@H]1CCCC[C@@H](n2c(-c3ccccc3F)nc3cnc(-c4nc[nH]n4)cc32)[C@@H]1O)c1ccc(Cl)s1` [Example 405, 5-chloro-N-((1S,2R,3R)-3-(2-(2-fluorophenyl)-6-(1H-1,2,4-triazol-3-yl)-1H-imidazo[4,5-c]pyridin-1-yl)-2-hydroxycycloheptyl)thiophene-2-carboxamide], the IC50 at BCAT2 [1] was no more than 100 nM; on hBCAT1, less than 500 nM; against BCAT2 [2] it was no more than 100 nM.
Consider `COc1cccc(F)c1-c1nc2cnc(-c3nc[nH]n3)cc2n1[C@@H]1CCCC[C@H](NC(=O)c2ccc(Cl)s2)[C@H]1O` [Example 407, 5-chloro-N-((1S,2R,3R)-3-(2-(2-fluoro-6-methoxyphenyl)-6-(1H-1,2,4-triazol-3-yl)-1H-imidazo[4,5-c]pyridin-1-yl)-2-hydroxycycloheptyl)thiophene-2-carboxamide], for which the IC50 against BCAT2 [1] was no more than 100 nM; at hBCAT1, less than 500 nM; on BCAT2 [2], no more than 100 nM.
